Reference: patent US20070054258A1, “Method of removing mucus and cell treatment solution and preservative solution used therefor” (SYSMEX CORPORATION, priority 2003, published 2007)

Experiments:
Format in all cases: cell-based
[1] = test system: cell populations of clinical specimen; assay: Effect of the cell treatment solution on cell morphology; conditions: 5 minutes compared with 1 minute
Method: The cell treatment solutions containing L-cysteine at concentrations of 5 mass %, 10 mass % and 20 mass % were used to treat cell populations of clinical specimen for 1 minute or 5 minutes in the same manner of the above, and the cells were observed. The results of each sample treated with the solutions containing 5 mass %, 10 mass % and 20 mass % L-cysteine for 1 minute and 5 minutes were shown in FIG. 9 to FIG. 14.

[2] = test system: cell populations in a clinical specimen derived from uterine cervix; assay: Effect of removing mucus in clinical specimens of uterine cervix for cytodiagnosis (Giemsa stain, light microscope)
Method: Cell populations in a clinical specimen derived from uterine cervix which had been stored in 30 to 60 mass % methanol-based, buffered preservative solution (PreservCyt® manufactured by Cytyc Corporation) was transferred to a 1.5 ml centrifuge tube (about 1×10^5 cells/sample).
The solution was centrifuged (10000 rpm; 1 minute; 4° C.) to separate cells, and the supernatant was removed.
To the cells thus collected was added 1 ml of a mixture (hereinafter referred to as PBS-T) of 0.1% Tween 20 (Sigma) and 0.01M phosphate buffer (PBS available from Sigma; pH7.4) and the cells were resuspended.
The cells were washed by another centrifugation (10000 rpm, 1 minute, 4° C.) for cell separation, removal of the supernatant and cell collection. The cells washed were resuspended in 500 μl of the preservative solution.
10 mass % aqueous solution of N-acetyl-L-cysteine (hereinafter referred to as AcCys) was prepared for a cell treatment solution. This cell treatment solution was added to the cell suspension obtained from the above, and samples of B to E were prepared so that the AcCys concentrations in the samples were 0.625 mass %, 1.25 mass % or 5 mass %.
The solution obtained after the reaction was finished was then centrifuged (10000 rpm; 1 minute; 4° C.) to separate cells, and the supernatant was removed and cells were collected.
The cells were washed by resuspension in 1 ml of PBS-T, another centrifugation (10000 rpm; 1 minute, 4° C.) for cell separation, and removal of the supernatant. This washing procedure was repeated two times.
The cells collected were suspended in 300 μl of 100% methanol and mounted on a glass slide by using Cytospin. Then, cells on the slide were stained with 5% Giemsa Stain Solution (Sysmex) for 15 minutes, washed thoroughly with PBS, and observed under a light microscope to give micrographs of FIG. 1 to 5 for each sample of A to E. […]

squamous cells = assay: Staining with fluorescent-labeled anti-NMP 179 antibody after treatment; conditions: cells treated with 5 mass % AcCys (FIG. 8)
Method: Squamous cells which were not treated with AcCys and squamous cells which were treated with 5 mass % AcCys were stained with a fluorescent-labeled anti-NMP 179 antibody which reacts with cells derived from uterine cervix except for normal uterine cervix squamous cells, and observed under a microscope to give each result of fluorescent image in FIG. 7 and FIG. 8.

| effect on cell morphology ([1]; 5 mass % L-cysteine) | effect on cell morphology ([1]; 10 mass % L-cysteine) | effect on cell morphology ([1]; 20 mass % L-cysteine) | Structure (SMILES) | mucus part (black clumps) after treatment ([2]; AcCys 5 mass % (Sample E), room temperature, 1 minute) | mucus part (black clumps) after treatment ([2]; AcCys 5 mass % (Sample F), reaction time 24 hours) | mucus part (black clumps) after treatment ([2]; AcCys under 5 mass % (Samples B to D), room temperature, 1 minute) | specificity of fluorescent anti-NMP179 antibody staining (squamous cells) |
| --- | --- | --- | --- | --- | --- | --- | --- |
| did not affect the cell morphology | did not affect the cell morphology | did not affect the cell morphology | N[C@@H](CS)C(=O)O [L-cysteine] |  |  |  |  |
|  |  |  | CC(=O)N[C@@H](CS)C(=O)O [AcCys, N-acetyl-L-cysteine] | black clumps showing mucus part were disappeared | black clumps showing mucus part were disappeared | there remained black clumps which showed mucus part | specific staining |
